The source made the active and inactive calls. The calls are words filed in the database; no cut-off is given here.
Key:
Acetylcholinesterase = Acetylcholinesterase (Homo sapiens, UniProt P22303); assay: Inhibition of human erythrocytes AChE measured after 10 mins by Ellman's method
Mus musculus [1] = assay: Antialzheimer activity against amyloid beta (1 to 42)-induced ICR mouse memory impairment model assessed as mean escape latency at 2.5 to 10 mg/kg, po administered daily and measured after 15 to 19 days by Morris water maze test; type: functional, organism-based; settings: dose 2.5-10 mg/kg, time 15-19 day
Mus musculus [2] = assay: Antialzheimer activity against scopolamine-induced ICR mouse cognitive deficit model assessed as latency time at 2.5 to 10 mg/kg, po administrated daily and measured on initial day of training by Morris water maze test; type: functional; settings: dose 2.5-10 mg/kg
[3] = Cytotoxicity against rat PC12 cells assessed as cell viability at 50 uM preincubated for 24 hrs and measured after 4 hrs by CCK-8 assay; type: toxicity, cell-based, PC-12; settings: time 28 hrs, read-out: Activity
Mus musculus [4] = assay: Antialzheimer activity against amyloid beta (1 to 42)-induced ICR mouse cognitive deficit model assessed as increase in step-through latency time at 5 to 10 mg/kg, po administered daily and measured on day 13 and 14 by step-through passive avoidance test; type: functional, organism-based; settings: dose 5-10 mg/kg, time 13-14 day
[5] = Acute toxicity in male ICR mouse assessed as mortality at 100 to 1000 mg/kg, po administered as single dose for 14 days; type: organism-based; settings: in vivo, 336 h, dose 100-1000 mg/kg, time 14 day
PC-12 [6] = assay: (§1) Neuroprotective activity against H2O2-induced rat PC12 cells assessed as protection against H2O2-induced apoptosis by measuring early apoptotic cells at 50 uM pretreated for 2 hrs followed by H2O2 addition and measured after 24 hrs by Annexin V-FITC/PI staining based flow cytometry analysis (reference value: 0.88 %); type: functional; settings: time 26 hrs
Mus musculus [7] = assay: Antialzheimer activity in amyloid beta (1 to 42 residues) induced ICR mouse memory impairment model assessed as increase in trajectory after platform removal at 2.5 to 10 mg/kg, po administered daily and measured after 15 to 19 days by Morris water maze test; type: functional, organism-based; settings: dose 2.5-10 mg/kg, time 15-19 day
Cholinesterase [8] = target: T1, Cholinesterase (Homo sapiens, UniProt P06276); assay: Inhibition of human serum BuChE using butyrylthiocholine iodide as substrate at 10 uM incubated for 10 mins followed by substrate addition by DTNB reagent based Ellman's method relative to control
Mus musculus [9] = assay: Antialzheimer activity against amyloid beta (1 to 42)-induced ICR mouse cognitive deficit model assessed as increase in alternation performance at 5 mg/kg, po administered daily and measured on day 12 by Y-maze test relative to control; type: functional; settings: time 12 day
[10] = Acute toxicity in male ICR mouse assessed as microscopic spleen damage at 100 to 1000 mg/kg, po administered for 14 days by hematoxylin and eosin staining based assay; type: organism-based; settings: in vivo, 336 h, dose 100-1000 mg/kg, time 14 day
Mus musculus [11] = assay: Antialzheimer activity in scopolamine-induced temporary memory and cognitive impairment ICR mouse model assessed as alternation performance at 10 mg/kg, po administered daily and measured on day 15 by Y-maze test; type: functional, organism-based; settings: time 15.0 day
[12] = Acute toxicity in male ICR mouse assessed as microscopic liver damage at 100 to 1000 mg/kg, po administered for 14 days by hematoxylin and eosin staining based assay; type: organism-based; settings: in vivo, 336 h, dose 100-1000 mg/kg, time 14 day
[13] = Acute toxicity in male ICR mouse assessed as microscopic heart damage at 100 to 1000 mg/kg, po administered for 14 days by hematoxylin and eosin staining based assay; type: organism-based; settings: in vivo, 336 h, dose 100-1000 mg/kg, time 14 day
Mus musculus [14] = assay: Antialzheimer activity against scopolamine-induced ICR mouse cognitive deficit model assessed as decrease in movement distance at 2.5 to 10 mg/kg, po administrated daily and measured on last day of training by Morris water maze test; type: functional, organism-based; settings: dose 2.5-10 mg/kg
PC-12 [15] = assay: as §1, with “late” for “early”, “7.26” for “0.88”; type: functional; settings: time 26 hrs
Mus musculus [16] = assay: Antialzheimer activity in scopolamine- induced ICR mouse assessed as increase in distance travelled within target quadrant at 2.5 to 10 mg/kg, po administered daily and measured after 16 to 20 days by Morris water maze test; type: functional, organism-based; settings: dose 2.5-10 mg/kg, time 16-20 day
[17] = Acute toxicity in male ICR mouse assessed as microscopic brain damage at 100 to 1000 mg/kg, po administered for 14 days by hematoxylin and eosin staining based assay; type: organism-based; settings: in vivo, 336 h, dose 100-1000 mg/kg, time 14 day
PC-12 [18] = assay: as §1, with “viable” for “early apoptotic”, “90.8” for “0.88”; type: functional; settings: time 26 hrs
Mus musculus [19] = assay: Antialzheimer activity in scopolamine- induced ICR mouse assessed as increase in time spent within target quadrant at 2.5 to 10 mg/kg, po administered daily and measured after 16 to 20 days by Morris water maze test; type: functional, organism-based; settings: dose 2.5-10 mg/kg, time 16-20 day
PC-12 [20] = assay: as §1, with “necrotic” for “early apoptotic”, “0.99” for “0.88”; type: functional; settings: time 26 hrs
[21] = Acute toxicity in male ICR mouse assessed as microscopic kidneys damage at 100 to 1000 mg/kg, po administered for 14 days by hematoxylin and eosin staining based assay; type: organism-based; settings: in vivo, 336 h, dose 100-1000 mg/kg, time 14 day
PC-12 [22] = assay: Antioxidant activity against H2O2-induced toxicity in rat PC12 cells at 12.5 uM preincubated for 2 hrs and measured after 24 hrs by CCK-8 assay; type: functional, cell-based; settings: time 26.0 hrs
Mus musculus [23] = assay: Antialzheimer activity in amyloid beta (1 to 42 residues) induced ICR mouse assessed as increase in time spent within target quadrant at 2.5 to 5 mg/kg, po administered daily and measured after 15 to 19 days by Morris water maze test; type: functional, organism-based; settings: dose 2.5-5 mg/kg, time 15-19 day
[24] = Acute toxicity in male ICR mouse assessed as effect on body weight at 100 to 1000 mg/kg, po administered for 14 days; type: organism-based; settings: in vivo, 336 h, dose 100-1000 mg/kg, time 14 day
Mus musculus [25] = assay: Antialzheimer activity against scopolamine-induced ICR mouse cognitive deficit model assessed as decrease in latency time at 2.5 to 10 mg/kg, po administrated daily and measured on last day of training by Morris water maze test; type: functional, organism-based; settings: dose 2.5-10 mg/kg
Mus musculus [26] = assay: Antialzheimer activity in scopolamine-induced temporary memory and cognitive impairment ICR mouse model assessed as increase in step-through latency time at 2.5 to 10 mg/kg, po administered daily and measured on day 13 and 14 by step-through passive avoidance test; type: functional, organism-based; settings: dose 2.5-10 mg/kg, time 13-14 day
Mus musculus [27] = assay: Antialzheimer activity in amyloid beta (1 to 42 residues) induced ICR mouse assessed as increase in distance travelled within target quadrant at 2.5 to 5 mg/kg, po administered daily and measured after 15 to 19 days by Morris water maze test; type: functional, organism-based; settings: dose 2.5-5 mg/kg, time 15-19 day
Mus musculus [28] = assay: Antialzheimer activity in scopolamine-induced temporary memory and cognitive impairment ICR mouse model assessed as alternation performance at 2.5 to 5 mg/kg, po administered daily and measured on day 15 by Y-maze test; type: functional, organism-based; settings: dose 2.5-5 mg/kg, time 15.0 day
Mus musculus [29] = assay: Antialzheimer activity against amyloid beta (1 to 42)-induced ICR mouse memory impairment model assessed as decrease in movement distance at 2.5 to 10 mg/kg, po administered daily and measured after 15 to 19 days by Morris water maze test; type: functional, organism-based; settings: dose 2.5-10 mg/kg, time 15-19 day
[30] = Acute toxicity in male ICR mouse assessed as microscopic lungs damage at 100 to 1000 mg/kg, po administered for 14 days by hematoxylin and eosin staining based assay; type: organism-based; settings: in vivo, 336 h, dose 100-1000 mg/kg, time 14 day
Mus musculus [31] = assay: Antialzheimer activity against amyloid beta (1 to 42)-induced ICR mouse cognitive deficit model assessed as increase in alternation performance at 10 mg/kg, po administered daily and measured on day 12 by Y-maze test relative to control; type: functional; settings: time 12 day
Cholinesterase [32] = target: T1, Cholinesterase; assay: Inhibition of human serum BuChE using butyrylthiocholine iodide as substrate incubated for 10 mins followed by substrate addition by DTNB reagent based Ellman's method
Mus musculus [33] = assay: Antialzheimer activity in scopolamine-induced ICR mouse assessed as increase in trajectory within target quadrant at 2.5 to 10 mg/kg, po administered daily and measured after 16 to 20 days by Morris water maze test; type: functional, organism-based; settings: dose 2.5-10 mg/kg, time 16-20 day
PC-12 [34] = assay: Cytoprotective against rat PC12 cells assessed as cell viability at 50 uM preincubated for 24 hrs and measured after 4 hrs by CCK-8 assay; type: functional, cell-based
Mus musculus [35] = assay: Antialzheimer activity against amyloid beta (1 to 42)-induced ICR mouse cognitive deficit model assessed as increase in alternation performance at 2.5 mg/kg, po administered daily and measured on day 12 by Y-maze test relative to control; type: functional; settings: time 12 day
[36] = Inhibition of H2O2-induced ROS release in rat PC12 cells assessed as mean fluorescence intensity at 50 uM preincubated for 2 hrs followed by H2O2 addition and measured after 24 hrs by DCFH-DA based flow cytometry analysis (reference value: 23904); type: functional, PC-12; settings: time 26 hrs

T1 sequence (P06276 whole entry): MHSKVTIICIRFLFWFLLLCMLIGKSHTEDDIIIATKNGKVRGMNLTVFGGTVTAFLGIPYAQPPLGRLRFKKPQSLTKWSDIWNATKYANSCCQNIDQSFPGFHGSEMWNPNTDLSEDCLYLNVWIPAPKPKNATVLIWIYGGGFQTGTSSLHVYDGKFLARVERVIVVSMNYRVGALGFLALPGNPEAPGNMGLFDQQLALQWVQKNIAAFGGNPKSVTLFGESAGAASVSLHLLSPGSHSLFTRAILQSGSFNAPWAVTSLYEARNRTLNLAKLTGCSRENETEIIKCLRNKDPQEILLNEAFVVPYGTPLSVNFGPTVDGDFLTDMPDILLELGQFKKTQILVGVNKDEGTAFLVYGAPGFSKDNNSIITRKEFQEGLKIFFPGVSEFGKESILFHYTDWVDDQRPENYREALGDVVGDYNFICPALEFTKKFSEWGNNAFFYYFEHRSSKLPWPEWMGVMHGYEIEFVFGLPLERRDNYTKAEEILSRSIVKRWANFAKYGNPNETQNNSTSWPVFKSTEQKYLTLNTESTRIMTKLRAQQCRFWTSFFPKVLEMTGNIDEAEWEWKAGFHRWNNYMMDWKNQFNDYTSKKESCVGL
Sequence of Acetylcholinesterase (P22303 whole entry): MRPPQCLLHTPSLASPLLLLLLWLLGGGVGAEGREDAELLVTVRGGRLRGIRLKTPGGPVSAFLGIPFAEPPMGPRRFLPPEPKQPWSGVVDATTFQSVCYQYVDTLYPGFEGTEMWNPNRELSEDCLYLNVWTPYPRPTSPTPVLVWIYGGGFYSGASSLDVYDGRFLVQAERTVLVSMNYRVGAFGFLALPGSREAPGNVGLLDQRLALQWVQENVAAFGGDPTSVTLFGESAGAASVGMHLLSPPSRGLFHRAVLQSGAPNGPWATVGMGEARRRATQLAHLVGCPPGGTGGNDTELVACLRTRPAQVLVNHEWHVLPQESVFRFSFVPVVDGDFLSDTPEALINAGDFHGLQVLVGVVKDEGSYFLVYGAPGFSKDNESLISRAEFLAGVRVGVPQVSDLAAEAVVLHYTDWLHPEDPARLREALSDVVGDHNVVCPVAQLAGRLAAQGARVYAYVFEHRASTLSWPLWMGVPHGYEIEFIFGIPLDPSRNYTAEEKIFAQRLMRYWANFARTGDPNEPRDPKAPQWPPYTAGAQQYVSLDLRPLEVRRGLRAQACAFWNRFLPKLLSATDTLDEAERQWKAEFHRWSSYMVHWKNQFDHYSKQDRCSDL

SMILES: COc1ccc2c3c1O[C@H]1C[C@@H](OCc4ccc(Cc5ccccc5F)cn4)C=C[C@@]31CCN(C)C2
- IC50 (Acetylcholinesterase): 514 nM
- Activity (Mus musculus [1]): Active
- Time (Mus musculus [2]): 60 s
- viability at 4 h, 50 µM [3]: > 90%
- Activity (Mus musculus [4]): Active
- Activity [5]: Non-toxic
- Activity (PC-12 [6]): 5.42%
- Activity (Mus musculus [7]): Active
- inhibition (Cholinesterase [8]): 96.5%
- Activity (Mus musculus [9]): 73.56%
- Activity [10]: Non-toxic
- Activity (Mus musculus [11]): inactive
- Activity [12]: Non-toxic
- Activity [13]: Non-toxic
- Activity (Mus musculus [14]): Active
- Activity (PC-12 [15]): 7.35%
- Activity (Mus musculus [16]): Dose-dependent-effect
- Activity [17]: Non-toxic
- Activity (PC-12 [18]): 86%
- Activity (Mus musculus [19]): Dose-dependent-effect
- Activity (PC-12 [20]): 1.21%
- Activity [21]: Non-toxic
- Activity (PC-12 [22]): Dose-dependent-effect
- Activity (Mus musculus [23]): Active
- Activity [24]: Non-toxic
- Activity (Mus musculus [25]): Active
- Activity (Mus musculus [26]): Dose-dependent-effect
- Activity (Mus musculus [27]): Active
- Activity (Mus musculus [28]): Active
- Activity (Mus musculus [29]): Active
- Activity [30]: Non-toxic
- Activity (Mus musculus [31]): 76.91%
- IC50 (Cholinesterase [32]): 358 nM
- Activity (Mus musculus [33]): Active
- Activity (PC-12 [34]): Active
- Activity (Mus musculus [35]): 72.91%
- Flu intensity [36]: 41314

Reference: ChEMBL document CHEMBL6121005 (Eur J Med Chem, 2025)
